Test results published in US20040204463A1, “N-aryl-2-oxazolidinone-5-carboxamides and their derivatives” (priority 2003, published 2004).
Converted amounts (≈) assume the structure as drawn.

Assays:
SAUR 9213 = assay: In vitro MIC by standard agar dilution method, SAUR 9213; format: cell-based, S. aureus; conditions: Staphylococcus aureus; agar dilution, Mueller Hinton agar, incubated overnight at 35° C.; lowest concentration that inhibits visible growth; read-out: SAUR 9213 MIC (Minimum Inhibitory Concentration)
Text: (§1) The oxazolidinone antibacterial agents of this invention have useful activity against a variety of organisms. The in vitro activity of compounds of this invention can be assessed by standard testing procedures such as the determination of minimum inhibitory concentration (MIC) by agar dilution as described in “Approved Standard. Methods for Dilution Antimicrobial Susceptibility Tests for Bacteria That Grow Aerobically”, 3rd. ed., published 1993 by the National Committee for Clinical Laboratory Standards, Villanova, Pa., USA.
(§2) The in vitro MICs of test compounds were determined by a standard agar dilution method. A stock drug solution of each analog was prepared in the preferred solvent, usually DMSO: H2O (1:3). Serial 2-fold dilutions of each sample are made using 1.0 ml aliquots of sterile distilled water. To each 1.0 ml aliquot of drug was added 9 ml of molten Mueller Hinton agar medium. The drug-supplemented agar was mixed, poured into 15×100 mm petri dishes, and allowed to solidify and dry prior to inoculation.
(§3) Vials of each of the test organisms are maintained frozen in the vapor phase of a liquid nitrogen freezer. Test cultures are grown overnight at 35° C. on the medium appropriate for the organism. Colonies are harvested with a sterile swab, and cell suspensions are prepared in Trypticase Soy broth (TSB) to equal the turbidity of a 0.5 McFarland standard. A 1:20 dilution of each suspension was made in TSB. The plates containing the drug supplemented agar are inoculated with a 0.001 ml drop of the cell suspension using a Steers replicator, yielding approximately 10^4 to 10^5 cells per spot. The plates are incubated overnight at 35° C.
(§4) Following incubation the Minimum Inhibitory Concentration (MIC μg/ml), the lowest concentration of drug that inhibits visible growth of the organism, was read and recorded.

SPNE 9912 = assay: In vitro MIC by standard agar dilution method, SPNE 9912; format: cell-based; conditions: agar dilution, Mueller Hinton agar, incubated overnight at 35° C.; lowest concentration that inhibits visible growth; read-out: SPNE 9912 MIC (Minimum Inhibitory Concentration)
Text: as §1, §2, §3, §4

HINF 30063 = assay: In vitro MIC by standard agar dilution method, HINF 30063; format: cell-based, H. influenzae; conditions: Haemophilus influenzae; agar dilution, Mueller Hinton agar, incubated overnight at 35° C.; lowest concentration that inhibits visible growth; read-out: HINF 30063 MIC (Minimum Inhibitory Concentration)
Text: as §1, §2, §3, §4

MIC (SAUR 9213)	MIC (SPNE 9912)	MIC (HINF 30063)	SMILES
4 µg/mL (≈ 7.47 µM)	0.25 µg/mL (≈ 0.467 µM)	16 µg/mL (≈ 29.9 µM)	CC(=O)NC[C@H]1CN(c2ccc(N3CCN(C(=O)CCCC#Cc4ccc(CN)cc4)CC3)c(F)c2)C(=O)O1 [Compound 26, N-({(5S)-3-[4-(4-{6-[4-(aminomethyl)phenyl]hex-5-ynoyl}piperazin-1-yl)-3-fluorophenyl]-2-oxo-1,3-oxazolidin-5-yl}methyl)acetamide]
4 µg/mL (≈ 7.87 µM)	1 µg/mL (≈ 1.97 µM)	64 µg/mL (≈ 126 µM)	CC(=O)NC[C@H]1CN(c2ccc(N3CCN(C(=O)CCC#Cc4ccc(O)cc4)CC3)c(F)c2)C(=O)O1 [Compound 30, N-{[(5S)-3-(3-fluoro-4-{4-[5-(4-hydroxyphenyl)pent-4-ynoyl]piperazin-1-yl}phenyl)-2-oxo-1,3-oxazolidin-5-yl]methyl}acetamide]
4 µg/mL (≈ 7.28 µM)	2 µg/mL (≈ 3.64 µM)	64 µg/mL (≈ 116 µM)	CC(=O)NC[C@H]1CN(c2ccc(N3CCN(C(=O)CCCCC#Cc4cccc(CN)c4)CC3)c(F)c2)C(=O)O1 [Compound 32, N-({(5S)-3-[4-(4-{7-[3-(aminomethyl)phenyl]hept-6-ynoyl}-piperazin-1-yl)-3-fluorophenyl]-2-oxo-1,3-oxazolidin-5-yl}methyl)acetamide]
4 µg/mL (≈ 7.67 µM)	1 µg/mL (≈ 1.92 µM)	16 µg/mL (≈ 30.7 µM)	CC(=O)NC[C@H]1CN(c2ccc(N3CCN(C(=O)CCC#Cc4cccc(CN)c4)CC3)c(F)c2)C(=O)O1 [Compound 33, N-({(5S)-3-[4-(4-{5-[3-(aminomethyl)phenyl]pent-4-ynoyl}piperazin-1-yl)-3-fluorophenyl]-2-oxo-1,3-oxazolidin-5-yl}-methyl)acetamide]

Further lines, the compound ahead of its results:

SMILES	MIC (SAUR 9213)	MIC (SPNE 9912)	MIC (HINF 30063)
CC(=O)NC[C@H]1CN(c2ccc(N3CCN(C(=O)CCCC#Cc4cccc(O)c4)CC3)c(F)c2)C(=O)O1 [Compound 27, N-{[(5S)-3-(3-fluoro-4-{4-[6-(3-hydroxyphenyl)hex-5-ynoyl]piperazin-1-yl}phenyl)-2-oxo-1,3-oxazolidin-5-yl]methyl}acetamide]	8 µg/mL (≈ 15.3 µM)	1 µg/mL (≈ 1.91 µM)	> 64 µg/mL
CC(=O)NC[C@H]1CN(c2ccc(N3CCN(C(=O)CCC#Cc4cccc(O)c4)CC3)c(F)c2)C(=O)O1 [Compound 29, N-{[(5S)-3-(3-fluoro-4-{4-[5-(3-hydroxyphenyl)pent-4-ynoyl]piperazin-1-yl}phenyl)-2-oxo-1,3-oxazolidin-5-yl]methyl}acetamide]	4 µg/mL (≈ 7.87 µM)	1 µg/mL (≈ 1.97 µM)	> 64 µg/mL
C#CCCCCC(=O)N1CCN(c2ccc(N3C[C@H](CNC(C)=O)OC3=O)cc2F)CC1 [Compound 31, N-({(5S)-3-[3-fluoro-4-(4-hept-6-ynoylpiperazin-1-yl)phenyl]-2-oxo-1,3-oxazolidin-5-yl}methyl)acetamide]	4 µg/mL (≈ 9 µM)	1 µg/mL (≈ 2.25 µM)	64 µg/mL (≈ 144 µM)
